Assay: RP, Waters ACQUITY UPLC HSS T3, 150 × 2.1 mm, 1.7 µm, 30 °C, 0.4 mL/min, estimated dead time 0.83 min; A: water + 0.2% formic acid; B: 2% water + 98% acetonitrile + 0.2% formic acid; gradient (min/%B) 0/0 2.5/0 7.5/10 10/100 12/100 18/0 25/0
Details: stereoisomer not certain

Row | Compound | LC retention time [min]
1 | NCCCCCCCCN [1-8-diaminooctane] | 1.74
2 | NC(CCCC(=O)O)C(=O)O (configuration not stated) [2-aminoadipic acid] | 1.73
3 | CCC(C)C(=O)C(=O)O (configuration not stated) [3-methyl-2-oxovaleric acid] | 9.23
4 | CC(C)CC(=O)C(=O)O [4-methyl-2-oxopentanoic acid] | 9.39
5 | CSC[C@H]1O[C@@H](n2cnc3c(N)ncnc32)[C@H](O)[C@@H]1O [5'-S-methyl-5'-thioadenosine] | 8.32
6 | Cn1c[n+](C2OC(CO)C(O)C2O)c2nc(N)[nH]c(=O)c21 (configuration not stated) [7-methylguanosine] | 5.75
7 | CC(=CCNc1ncnc2c1ncn2C1OC(CO)C(O)C1O)CO (stereo not drawn) [9-ribosyl-trans-zeatin] | 8.91
8 | Cc1cc(Cl)ccc1OCC(=O)O [(4-chloro-2-methylphenoxy)acetic acid] | 10.3
9 | CCCCCCCCCCCCCCCC[C@@H](O)C(=O)O [(R)-2-hydroxystearic acid] | 12.4
10 | O=C[C@@H](O)[C@H](O)[C@H](O)[C@H](O)CO [D-altrose] | 1.55
11 | O=C(COP(=O)(O)O)[C@@H](O)[C@H](O)[C@H](O)CO [D-fructose 1-phosphate] | 1.49
12 | NCCCC[C@H](N)C(=O)O [L-lysine] | 1.23
13 | NCCSCC(N)C(=O)O [L-thialysine] | 1.26
14 | C[n+]1cccc(C(=O)[O-])c1 [N-methylnicotinate] | 1.73
15 | O=C(O)CCCCC(=O)O [adipic acid] | 8.14
16 | NC(=O)NC1NC(=O)NC1=O (configuration not stated) [allantoin] | 1.63
17 | CC(O)(CC(=O)O)C(=O)O (configuration not stated) [citramalic acid] | 5.17
18 | NC(=O)NCCCC(N)C(=O)O (configuration not stated) [citrulline] | 1.55
19 | Nc1ccnc(=O)[nH]1 [cytosine] | 1.62
20 | C=C1C(=O)OC2C1CCC(=C)C1CCC(=C)C12 (configuration not stated) [dehydrocostus lactone] | 10.9
21 | O=c1ccc2cc(OC3OC(CO)C(O)C(O)C3O)c(O)cc2o1 (configuration not stated) [esculin hydrate] | 8.95
22 | OCC1OC(OCC2OC(O)C(O)C(O)C2O)C(O)C(O)C1O (configuration not stated) [gentiobiose] | 1.73
23 | C[N+](C)(C)CC(=O)[O-] [glycine betaine] | 1.55
24 | CCC=CCC1C(=O)CCC1CC(=O)OC (configuration not stated) [methyl jasmonate] | 10.6
25 | NC(=O)c1cccnc1 [nicotinamide] | 3.33
26 | O=C(O)C1CCCN1 (configuration not stated) [proline] | 1.73
27 | Oc1cccc2cccnc12 [quinolin-8-ol] | 7.14
28 | CC(=CCNc1ncnc2nc[nH]c12)CO [trans-zeatin] | 7.57

Second part, the compound after the results:

Row | LC retention time [min] | Compound
29 | 9.17 | Cn1cc(CC(N)C(=O)O)c2ccccc21 (configuration not stated) [1-methyltryptophan]
30 | 9.71 | O=C(O)Cn1ccc2ccccc21 [1H-indole-1-acetic acid]
31 | 10.2 | c1ccc2[nH]ccc2c1 [1H-indole]
32 | 5.54 | Nc1cccc(C(=O)O)c1 [3-aminobenzoic acid]
33 | 9.54 | O=C(O)C=Cc1cccc(O)c1 [3-coumaric acid]
34 | 9.31 | O=C(O)c1cccc(O)c1 [3-hydroxybenzoic acid]
35 | 9.4 | O=Cc1ccc(O)cc1 [4-hydroxybenzaldehyde]
36 | 8.57 | COc1ccc2ncccc2c1 [6-methoxyquinoline]
37 | 9.92 | O=c1cc(-c2ccc(O)cc2)oc2cc(O)cc(O)c12 [apigenin]
38 | 10.7 | Cc1cc(O)c2c(c1)C(=O)c1cc(O)cc(O)c1C2=O [emodin]
39 | 9.98 | O=c1c(O)c(-c2ccc(O)cc2)oc2cc(O)cc(O)c12 [kaempferol]
40 | 9.79 | O=c1c(O)c(-c2ccc(O)c(O)c2)oc2cc(O)cc(O)c12 [quercetin]
41 | 9.27 | COc1cc(C(=O)O)ccc1O [vanillic acid]
42 | 9.53 | COc1cc(C=O)ccc1O [vanillin]

Source: the RepoRT retention time repository (doi:10.1002/minf.201400016)
